Consider seven substances from US20110143948A1, “MOLECULAR SIGNATURES AND BIOMARKERS ASSOCIATED WITH MELANOMA AND METHODS OF USE THEREOF” (priority 2008, published 2011).

In this data set the test system is ncRNAs (SEQ ID NO 28-89). The data set can be described thus: ncRNA arrays of melanocytes, keratinocytes, normal skin, melanoma cell lines and patient samples. Set-up: species or system human. To be noted: for ncRNA array expression, patient 2: melanoma patient 2 sample compared to normal skin; for ncRNA array expression, patient 3: melanoma patient 3 sample compared to normal skin; for ncRNA array expression, patient 4: melanoma patient 4 sample compared to normal skin; for ncRNA array expression, patient 5: melanoma patient 5 sample compared to normal skin; for ncRNA array expression, patient 6: melanoma patient 6 sample compared to normal skin; for ncRNA array expression, patient 7: melanoma patient 7 sample compared to normal skin; for ncRNA array expression, patient 8: melanoma patient 8 sample compared to normal skin; for ncRNA array expression, patient 9: melanoma patient 9 sample compared to normal skin; for ncRNA array expression, patient 10: melanoma patient 10 sample compared to normal skin; for ncRNA array expression, patient 19: melanoma patient 19 sample compared to normal skin; for ncRNA array expression, patient 20: melanoma patient 20 sample compared to normal skin; for ncRNA array expression, patient 21: melanoma patient 21 sample compared to normal skin; for ncRNA array expression, patient 22: melanoma patient 22 sample compared to normal skin; for ncRNA array expression, patient 23: melanoma patient 23 sample compared to normal skin; for ncRNA array expression, patient 24: melanoma patient 24 sample compared to normal skin; for ncRNA array expression, patient 25: melanoma patient 25 sample compared to normal skin; for ncRNA array expression, patient 26: melanoma patient 26 sample compared to normal skin; for ncRNA array expression, patient 27: melanoma patient 27 sample compared to normal skin; for ncRNA array expression, patient 28: melanoma patient 28 sample compared to normal skin; for ncRNA array expression, patient 29: melanoma patient 29 sample compared to normal skin; for ncRNA array expression, patient 30: melanoma patient 30 sample compared to normal skin. The gist of the method: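 Total RNA from melanocytes, keratinocytes, normal human skin, melanoma cell lines and melanoma patient samples was profiled on an array of >10,000 putative (>200 nt) human and mouse ncRNAs plus RefSeq mRNA probes. Expression was compared with melanocytes or normal skin, keratinocyte signatures were subtracted, and hits were validated by qRT-PCR and Northern blot.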

For the substance “SEQ ID NO 79 (GTGTGTACTGATGTCAAAGACCAAATGGATGCCCCTGTGGCCAACAGTACCTTGTTAAAC; listed as DNA, chemistry not given here; listed as Homo sapiens)”, the “ncRNA array expression, patient 2” value is on record as 0.5938; the “ncRNA array expression, patient 3” value is on record as 1.324; the “ncRNA array expression, patient 4” value turned out to be 1.428; the “ncRNA array expression, patient 5” value is reported as 1.43. Also, the “ncRNA array expression, patient 6” value is on record as 1.201; the “ncRNA array expression, patient 7” value was 1.729; the “ncRNA array expression, patient 8” value worked out at 1.728; the “ncRNA array expression, patient 9” value was 1.129. For the same substance, the “ncRNA array expression, patient 10” value was 0.1808; the “ncRNA array expression, patient 19” value is recorded as 1.52; the “ncRNA array expression, patient 20” value is given as 1.494; the “ncRNA array expression, patient 21” value is 1.271. For the same substance, the “ncRNA array expression, patient 22” value is 1.165; the “ncRNA array expression, patient 23” value came to 1.445; the “ncRNA array expression, patient 24” value worked out at 2.943; the “ncRNA array expression, patient 25” value came out at 1.206. Also, the “ncRNA array expression, patient 26” value came out at 0.7039; the “ncRNA array expression, patient 27” value is on record as 0.9237; the “ncRNA array expression, patient 28” value was found to be 0.5852; the “ncRNA array expression, patient 29” value worked out at 0.6174. Further, the “ncRNA array expression, patient 30” value came out at 0.5148.
For “SEQ ID NO 80 (CACACAGCCCAGTCTGCCTGTGATGGTAATATAAATCAAACCAGGGACCCAAGAGCCCAG; listed as DNA, chemistry not given here; listed as Homo sapiens)”, the “ncRNA array expression, patient 2” value is given as −1.594; the “ncRNA array expression, patient 3” value is −1.487; the “ncRNA array expression, patient 4” value is recorded as −1.4489; the “ncRNA array expression, patient 5” value is −1.208. In addition, the “ncRNA array expression, patient 6” value is −0.982; the “ncRNA array expression, patient 7” value is given as −1.213; the “ncRNA array expression, patient 8” value was −1.338; the “ncRNA array expression, patient 9” value is listed as −1.383. For the same substance, the “ncRNA array expression, patient 10” value was −1.815; the “ncRNA array expression, patient 19” value is −1.234; the “ncRNA array expression, patient 20” value was −2.056; the “ncRNA array expression, patient 21” value is reported as −1.5287. The “ncRNA array expression, patient 22” value was −0.7073; the “ncRNA array expression, patient 23” value is −0.1143; the “ncRNA array expression, patient 24” value is −1.175; the “ncRNA array expression, patient 25” value is reported as −1.992. Moreover, the “ncRNA array expression, patient 26” value was −1.983; the “ncRNA array expression, patient 27” value is given as −1.665; the “ncRNA array expression, patient 28” value is given as −1.4589; the “ncRNA array expression, patient 29” value is −1.489. Also, the “ncRNA array expression, patient 30” value was determined as 0.1296.
In the case of “SEQ ID NO 81 (CTAGGGGCGGAGTTTCTCGTAAGGGGCAAGGCCAAGGCATCTTGTATTGGGGCTGACAGG; listed as DNA, chemistry not given here; listed as Homo sapiens)”, the “ncRNA array expression, patient 2” value is reported as −2.704; the “ncRNA array expression, patient 3” value is on record as −2.664; the “ncRNA array expression, patient 4” value is reported as −2.74; the “ncRNA array expression, patient 5” value is −2.515. Also, the “ncRNA array expression, patient 6” value was −1.776; the “ncRNA array expression, patient 7” value is −2.533; the “ncRNA array expression, patient 8” value is on record as −2.25; the “ncRNA array expression, patient 9” value is −2.579. The “ncRNA array expression, patient 10” value is listed as −3.027; the “ncRNA array expression, patient 19” value was −2.079; the “ncRNA array expression, patient 20” value is on record as −2.527; the “ncRNA array expression, patient 21” value is given as −2.568. Besides, the “ncRNA array expression, patient 22” value is recorded as −1.3874; the “ncRNA array expression, patient 23” value is −1.288; the “ncRNA array expression, patient 24” value is listed as −2.451; the “ncRNA array expression, patient 25” value is −2.889. Besides, the “ncRNA array expression, patient 26” value was −3.081; the “ncRNA array expression, patient 27” value was −2.77; the “ncRNA array expression, patient 28” value is given as −2.666; the “ncRNA array expression, patient 29” value is reported as −2.727. Further, the “ncRNA array expression, patient 30” value was 2.229.
Turning to “SEQ ID NO 82 (GAAGTCAGAAACTAAAGTTCCCTTCTAAGACAAAATCCTGCTTTGGAGAAAAAAAAAAAT; listed as DNA, chemistry not given here; listed as Homo sapiens)”, the “ncRNA array expression, patient 2” value was −3.153; the “ncRNA array expression, patient 3” value is recorded as −2.943; the “ncRNA array expression, patient 4” value is given as −3.11; the “ncRNA array expression, patient 5” value is −2.733. In addition, the “ncRNA array expression, patient 6” value is −1.179; the “ncRNA array expression, patient 7” value was −3.133; the “ncRNA array expression, patient 8” value is −2.955; the “ncRNA array expression, patient 9” value is −3.056. Further, the “ncRNA array expression, patient 10” value was −3.4499; the “ncRNA array expression, patient 19” value is listed as −3.347; the “ncRNA array expression, patient 20” value is −3.111; the “ncRNA array expression, patient 21” value is recorded as −3.1409. Moreover, the “ncRNA array expression, patient 22” value was −2.791; the “ncRNA array expression, patient 23” value is −3.009; the “ncRNA array expression, patient 24” value is reported as −3.02; the “ncRNA array expression, patient 25” value was −3.428. In addition, the “ncRNA array expression, patient 26” value was −3.448; the “ncRNA array expression, patient 27” value was −3.18; the “ncRNA array expression, patient 28” value was −3.348; the “ncRNA array expression, patient 29” value is −3.301. Besides, the “ncRNA array expression, patient 30” value is listed as −2.485.
With “SEQ ID NO 83 (TCAGTTTGATGATTGGGCTAGGGAATGAAGCTTTGCCACTTAGGAGATAAACCCCATAAC; listed as DNA, chemistry not given here; listed as Homo sapiens)”, the “ncRNA array expression, patient 2” value is reported as −1.488; the “ncRNA array expression, patient 3” value is −1.164; the “ncRNA array expression, patient 4” value was −1.691; the “ncRNA array expression, patient 5” value is −1.156. Moreover, the “ncRNA array expression, patient 6” value is −0.6047; the “ncRNA array expression, patient 7” value was −0.9496; the “ncRNA array expression, patient 8” value was −0.9534; the “ncRNA array expression, patient 9” value is −1.016. In addition, the “ncRNA array expression, patient 10” value is listed as −1.381; the “ncRNA array expression, patient 19” value is −1.6448; the “ncRNA array expression, patient 20” value was −1.228; the “ncRNA array expression, patient 21” value is −1.45. In addition, the “ncRNA array expression, patient 22” value is recorded as −1.116; the “ncRNA array expression, patient 23” value is recorded as −1.855; the “ncRNA array expression, patient 24” value is listed as −1.066; the “ncRNA array expression, patient 25” value was −1.422. The “ncRNA array expression, patient 26” value was −1.405; the “ncRNA array expression, patient 27” value is −1.43; the “ncRNA array expression, patient 28” value is reported as −1.28; the “ncRNA array expression, patient 29” value is −1.1118. The “ncRNA array expression, patient 30” value is given as −1.73.
Consider “SEQ ID NO 84 (TTATTAAAAGGACTGAGGATCATGTGTGTTGGTGTGTCCCGGAGTCTGCTCTAAGGTAAA; listed as DNA, chemistry not given here; listed as Homo sapiens)”, for which the “ncRNA array expression, patient 2” value is 1.997; the “ncRNA array expression, patient 3” value was found to be 1.789; the “ncRNA array expression, patient 4” value came out at 1.046; the “ncRNA array expression, patient 5” value amounted to 0.9959. Further, the “ncRNA array expression, patient 6” value came to 0.3741; the “ncRNA array expression, patient 7” value is 2.005; the “ncRNA array expression, patient 8” value stood at 1.104; the “ncRNA array expression, patient 9” value is given as 1.55. Further, the “ncRNA array expression, patient 10” value is recorded as 0.2561; the “ncRNA array expression, patient 19” value is on record as 1.044; the “ncRNA array expression, patient 20” value turned out to be 1.668; the “ncRNA array expression, patient 21” value came to 1.56. The “ncRNA array expression, patient 22” value was determined as 2.01; the “ncRNA array expression, patient 23” value is 2.078; the “ncRNA array expression, patient 24” value worked out at 1.532; the “ncRNA array expression, patient 25” value was 1.329. Moreover, the “ncRNA array expression, patient 26” value amounted to 1.373; the “ncRNA array expression, patient 27” value is on record as 1.88; the “ncRNA array expression, patient 28” value was found to be 1.062; the “ncRNA array expression, patient 29” value was 1.558. The “ncRNA array expression, patient 30” value is given as 1.105.
On to “SEQ ID NO 85 (TGAGGGGAGAGGGGATGGGAAACATTAGGGCTGGGTTCATGTAAAGGGACCAGCATTGTG; listed as DNA, chemistry not given here; listed as Homo sapiens)”, for which the “ncRNA array expression, patient 2” value is given as −3.042; the “ncRNA array expression, patient 3” value is listed as −2.236; the “ncRNA array expression, patient 4” value is −3.353; the “ncRNA array expression, patient 5” value is reported as −3.144. Besides, the “ncRNA array expression, patient 6” value is given as −1.878; the “ncRNA array expression, patient 7” value is −3.331; the “ncRNA array expression, patient 8” value was −3.241; the “ncRNA array expression, patient 9” value is listed as −3.15. For the same substance, the “ncRNA array expression, patient 10” value is on record as −2.88; the “ncRNA array expression, patient 19” value is given as −2.497; the “ncRNA array expression, patient 20” value is −3.4136; the “ncRNA array expression, patient 21” value was −3.4. Besides, the “ncRNA array expression, patient 22” value is recorded as −1.235; the “ncRNA array expression, patient 23” value was −0.784; the “ncRNA array expression, patient 24” value was −3.14; the “ncRNA array expression, patient 25” value is −3.2. Moreover, the “ncRNA array expression, patient 26” value is −3.139; the “ncRNA array expression, patient 27” value is given as −3.328; the “ncRNA array expression, patient 28” value is reported as −3.261; the “ncRNA array expression, patient 29” value is given as −3.3212. For the same substance, the “ncRNA array expression, patient 30” value worked out at 0.6346.
